Two compounds from patent US20230364032A1, “USE OF 2-HOBA TO TREAT ATHEROSCLEROSIS” (Vanderbilt University, priority 2020, published 2023) can be followed below.

One experiment has as its system MDA. Briefly: HOBA-MDA adducts in macrophages incubated with ox-LDL (LC-MS/MS). In kind it is cell-based, mouse. The conditions noted are these: 24 h; for HOBA-MDA (propenal-HOBA) adducts in macrophages: macrophages treated with oxidized LDL, 2-HOBA versus 4-HOBA. On the procedure:
Peritoneal macrophages were isolated from C57BL/6J mice and incubated with 50 μg/mL ox-LDL, and treated with either 250 μm 2-HOBA or 4-HOBA (18A), or 5 μm of 2-HOBA or 4-HOBA (18B, 18C, 18D) for 24 h. Cell samples were collected and the HOBA-MDA adducts were measured using LC-MS/MS as described in supplemental methods. * p<0.05, One-way ANOVA with Bonferroni's post hoc test.
The scavenger-MDA adducts were extracted, (1) from homogenate of tissue (equivalent of 30 mg) or (2) from cells (1 ml), three times with 500 μl of ethyl acetate. The extract was dried down, resuspended in 100 μl of ACN-water (1:1, v/v with 0.1% formic acid), vortexed, and filtered through a 0.22 μm spin X column. The reactions were analyzed by LC-EST/MS/MS using the column a Phenomenex Kinetex column at a flow rate of 0.1 ml/min. The gradient consisted of Solvent A, water with 0.2% formic acid and solvent B, acetonitrile with 0.2% formic acid. The gradient was as follows: 0-2 min 99.9% A, 2-9 min 99.9-0.1% A, 9-12 min 99.9% B. The mass spectrometer was operated in the positive ion mode, and the spray voltage was maintained at 5,000 V. Nitrogen was used for the sheath gas and auxiliary gas at pressures of 30 and 5 arbitrary units, respectively. The optimized skimmer offset was set at 10, capillary temperature was 300° C., and the tube lens voltage was specific for each compound. SRM of specific transition ions for the precursor ions at m/z 178→107 (propenal-HOBA adduct).

A further experiment relates to MDA-apoAI. Briefly: Plasma MDA-apoAI by immunoprecipitation and western blotting. In kind it is in vivo, mouse. Here is the method:
FIGS. 7A-7G show the effects of 2-HOBA on MDA-HDL adducts and HDL function. (7A) The levels or MDA adducts were measured by ELISA in HDL isolated from Ldlr mice treated as described in FIG. 1. Data are presented as mean±SEM (N=8 pet group), *** p<0.001, One-way ANOVA with Bonferroni's post hoc test. (7B) Western blots of apoAl and MDA-apoAl in HDL isolated from plasma by immunoprecipitation using primary anti-apoAl antibody. Ldlf mice were treated as described In FIG. 1 and apoAl and MDA-apoAl from Ldlr mice consuming a chow diet are included f0t comparison. (7C) Quantitation using lmageJ software of the mean density ratio (arbitrary units) of MDA-apoAl to apoAl detected by Western blotting (7B). […]
The study was approved by the Vanderbilt University Institutional Review Board (IRB), and all participants gave their written informed consent. […] After stopping the reaction, the O.D. was measured at 450 nm wavelength. MDA-ApoAI was detected in mouse plasma by immunoprecipitation of ApoAI and western blotting. […] Proteins were visualized and quantitated by Odyssey 3.0 Quantification software (LI-COR).

The next experiment deals with Phospho-Akt (S473). Briefly: Akt signaling in macrophages (phospho-Akt Western blot). Format: cell-based, mouse. As to conditions: 250 μM, 1 hour; absence and presence of insulin; vehicle, 4-HOBA, 2-HOBA compared. Here is the method:
WT macrophages were treated with or without vehicle (water), 250 μM 4-HOBA or 2-HOBA for 1 hour, and then incubated with or without 100 nM insulin as indicated for 15 min. Phospho-Akt (S473) and GAPDH were detected by Western Blotting (19A). The band density was quantitated by ImageJ software (19B). Two independent experiments were performed.

Entries after “also recorded” stand apart in the source; their conditions may differ.

As to `NCc1ccccc1O` [2-HOBA, 2-hydroxybenzylamine], the “propenal-2-HOBA, DHP-MDA-2-HOBA and crosslinked MDA-2-HOBA adducts in cells” value in the experiment on MDA (cells incubated with 5 μM, ox-LDL) is reported as “significant levels of propenal-2-HOBA were formed”. In the experiment with MDA, the “HOBA-MDA (propenal-HOBA) adducts in macrophages” value was “increased; also recorded: readily detected; also recorded: formation of 2-HOBA-MDA adducts”. The “plasma MDA-apoAI adducts” value in the experiment on MDA-apoAI (Ldlr−/− mice consuming a western diet) is “inhibited; also recorded: dramatically reduced”. The “pAKT levels in macrophages” value with Phospho-Akt (S473) is given as “no difference; also recorded: does not influence”.
For the compound `NCc1ccc(O)cc1` [4-HOBA, 4-hydroxybenzylamine, reference compound], the “HOBA-MDA (propenal-HOBA) adducts in macrophages” value in the experiment with MDA was “undetectable”. For the same compound, in the experiment on MDA-apoAI (after 16 weeks on the western-type diet), the “plasma levels of MDA-apoAI compared to Ldlr−/− mice consuming a chow diet” value is recorded as “markedly increased”. Moreover, in the experiment on Phospho-Akt (S473), the “pAKT levels in macrophages” value was “no difference”.
